{"source": "patent US11154564B2", "about": "“Composition for cough” (Aboca S.p.A. Società Agricola, priority 2017, dated 2021)", "key": {"human keratocytes": {"tested_on": "human keratocytes", "assay": "Scavenger-type anti-oxidizing activity assay (DCA probe, H2O2 oxidative stress)", "assay_type": "cell-based", "conditions": "0.05 mg/ml", "description": "Assessment of anti-oxidizing activity of the sample on human cells exposed to chemical-type progressive oxidative stress. The assessment of anti-oxidizing action is obtained from quantification of free radical formation in cells exposed to the sample and to oxidative stress. The method applied is based on the use of the fluorimetric probe 2,7 dichlorofluorescein acetate-DCA-: this probe penetrates into cells, binds to cell membrane proteins and macromolecules. In this form, the probe is not fluorescent, only becoming fluorescent when oxidized by free radicals. Cells pretreated with DCA are exposed to the various dilutions of the sample and hydrogen peroxide. […] Starting from this mother solution, the first dilution was prepared at a concentration of 0.5 mg/ml in saline; therefrom, by applying a 1:2 dilution factor, the other four dilutions were obtained. Positive Control: cells exposed to the 500 μM H2O2 solution. Internal Control: cells exposed to an ascorbic acid solution (0.05 mg/ml). Negative Control: cells exposed to the inoculation medium. The assay was performed on a simple cell model consisting of a monolayer of stabilized human keratocytes (cells were purchased from IZSLER and are guaranteed as free from any viral/bacterial contamination and/or from mycoplasma). […] The same procedure was carried out to obtain the same five dilutions in a 500 μM H2O2 solution in saline. 150 μl per each dilution (in saline and in H2O2) were distributed into four wells on two different plates. Cultured cells were enzymatically detached from the growth medium and counted with an electronic cell counter (Scepter); a cell suspension was prepared (in inoculation medium) at the density of 300,000 cells/ml, which were then distributed into 96-well plates: 100 μl per well, obtaining a seeding density of 30,000 cells per well. Lastly, the plates were placed back to culture in an incubator at 37° C. and 5% CO2-enriched humid atmosphere for the subsequent 24 hours. The inoculation medium was removed, cells were washed once with PBS, then PBS was discarded and 150 μl DCA (4 μM) was distributed in both plates. Then, the plates were placed back in incubator at 37° C. and 5% CO2-enriched atmosphere for 15 minutes. At the end of the DCA incubation period, the solution was removed, and cells were washed once with PBS, then 150 μl of the above-described dilutions of the sample and of the controls were distributed in the plates. Then, free radical formation was measured from T0 (right after inoculation into the two plates) every 20 minutes, up to 100 minutes (5 measurements) with a fluorimeter. At the end of the measurements, after the 100 minutes, the inoculate of both plates was removed and Neutral Red Uptake vitality assay was performed. F.U.: fluorescence unit F.U. positive control: average of F.U. emitted from cells exposed to the H2O2 solution (maximum production of free radicals) F.U. negative control: average of F.U. emitted from cells not exposed to oxidative stress At each time interval of exposure ([NT]5) there were carried out: the average of F.U. emitted from cells exposed to the sample, to vitamin C without oxidative stress, is subtracted from the average of F.U. emitted from cells exposed to the sample, to vitamin C and oxidative stress. In other words, the average values of fluorescence emitted from the non-stressed plate were subtracted from the average values of fluorescence emitted from the stressed plate. […]: cells exposed to the sole sample F.U. Controlpos: cells exposed to the sole oxidative stress F.U. Controlneg: cells exposed to saline without oxidative stress"}, "[1]": {"assay": "Stability of the composition (total tannins as pyrogallol, EP 9.2, 2.8.14)", "assay_type": "physicochemical", "conditions": "fluid form (syrup), 40° C. and 75% of relative humidity, six months", "method": "The stability of the composition of the invention in fluid form (syrup, as per examples above, at 2) with regard to tannins was assessed by measuring the content of total tannins, expressed as pyrogallol, by means of spectrophotometric method described in European Pharmacopoeia (EP 9.2, 2.8.14) for agrimony."}}, "data": [{"compound": "O=C1O[C@H]([C@@H](O)CO)C(O)=C1O", "note": "[Vit. C, Ascorbic acid]", "values": [{"measurement": "% PROTECTION FROM FREE RADICALS", "setting": "human keratocytes; 20 MIN, 500 μM H2O2", "result": 57, "unit": "%"}, {"measurement": "FREE RADICAL DEVELOPMENT", "setting": "human keratocytes; 20 MIN, 500 μM H2O2", "result": 5993}, {"measurement": "% PROTECTION FROM FREE RADICALS", "setting": "human keratocytes; 40 MIN, 500 μM H2O2", "result": 60, "unit": "%"}, {"measurement": "FREE RADICAL DEVELOPMENT", "setting": "human keratocytes; 40 MIN, 500 μM H2O2", "result": 5721}, {"measurement": "% PROTECTION FROM FREE RADICALS", "setting": "human keratocytes; 60 MIN, 500 μM H2O2", "result": 60, "unit": "%"}, {"measurement": "FREE RADICAL DEVELOPMENT", "setting": "human keratocytes; 60 MIN, 500 μM H2O2", "result": 5240}, {"measurement": "% PROTECTION FROM FREE RADICALS", "setting": "human keratocytes; 80 MIN, 500 μM H2O2", "result": 63, "unit": "%"}, {"measurement": "FREE RADICAL DEVELOPMENT", "setting": "human keratocytes; 80 MIN, 500 μM H2O2", "result": 4802}, {"measurement": "% PROTECTION FROM FREE RADICALS", "setting": "human keratocytes; 100 MIN, 500 μM H2O2", "result": 61, "unit": "%"}, {"measurement": "FREE RADICAL DEVELOPMENT", "setting": "human keratocytes; 100 MIN, 500 μM H2O2", "result": 4937}, {"measurement": "% PROTECTION FROM FREE RADICALS", "setting": "human keratocytes; T0, 500 μM H2O2", "result": 45, "unit": "%"}, {"measurement": "FREE RADICAL DEVELOPMENT", "setting": "human keratocytes; T0, 500 μM H2O2", "result": 5654}, {"measurement": "stability in fluid form", "setting": "[1]; listed as Vitamin C", "result": "did not exhibit stability beyond T0"}, {"measurement": "stability in fluid form", "setting": "[1]; listed as vitamin C", "result": "markedly unstable"}]}]}
